Laboratory results as given in patent US20060122099A1, “Method for infusing insulin to a subject to improve impaired total body tissue glucose processing” (priority 2004, published 2006).

How the values were obtained:
[1] = Circulating glucose by finger stick during insulin pulse treatments; assay type: in vivo, human; settings: during the first treatment, with ingested carbohydrates; all examples
Description: In prototype testing, a commercially available LIFESCAN ONETOUCH ULTRA glucose meter was used to measure the subject's baseline and subsequent circulating blood glucose level. The glucose meter was calibrated according to the manufacturer's recommendations. A blood sampler test strip was then inserted into the blood glucose meter as directed by the manufacturer. The glucose meter automatically turned on upon proper insertion of the test strip into the meter. This commercially available glucose meter utilized a lancet to prick the subject's fingertip or arm. After pricking the skin, the user gently massages the area to help form a round drop of blood (about one micro-liter in volume) on the skin surface. The subject then caused the blood sample to be absorbed onto the blood sampler test strip per the manufacturer's recommended procedure. If adequate blood was absorbed by the blood sampler test strip, the blood glucose level was automatically calculated and shown on the instrument's display panel in approximately 5 seconds. […]
For all of the above listed examples, after the initial few days of treatment, the patients underwent treatment once a week, each treatment day consisting of three infusions of insulin accompanied by ingestion of carbohydrates. […] The patients' circulating glucose were measured once every thirty minutes by the finger stick method currently used by most diabetic patients. […]

[2] = stated without source; cited from earlier work

## insulin
[1]
  rise in circulating glucose levels: 100 to 150 mg/dL
[2]
  half-life: 5 min
